{"source": "patent US9868720B2", "about": "(Genentech, Inc., priority 2013, dated 2018)", "key": {"[1]": {"system": "phosphorylation of JNK in HEK293 cells stably transfected with doxycycline-inducible Flag-tagged full length DLK", "assay": "pJNK Cell based assay", "details": "Homo sapiens; HEK293 cells with doxycycline-induced DLK, 5.5 hours compound treatment, pJNK mean intensity by imaging; read-out: p-JNK 293 IC50", "description": "pJNK Cell based assay:HEK293 cells stably transfected with doxycycline-inducible N-terminally Flag-tagged full length DLK were plated at density of 7500 cells/well (40 μL) in 384-well Greiner bio-one μclear plate coated with Poly-D-Lysine. The cells were incubated at 37° C. in DMEM (Dulbecco's Modified Eagle Medium) media containing 10% FBS and 2 mM L-Glutamine for 20-24 hours. 5 μL of 60 μM doxycycline was added to the cells to initiate DLK expression for 20 hours at 37° C. No doxycycline was added for the negative control wells. 5 μL of compounds of formula I in various concentrations in DMEM were added to the cells and the compound treated cell culture was incubated at 37° C. for 5.5 hours prior to fixation with addition of 50 μL 4% paraformaldehyde. The wells were washed with 40 μL PBS wash twice followed by permeabilization with 0.1% Triton X-100. The cells were washed with 40 μL PBS wash twice again prior to incubation in 20 μL SuperBlock (Thermo Scientific) for 1 hour at ambient temperature. The primary antibodies (1:3000 mouse anti-Flag and 1:1000 rabbit anti-pJNK in SuperBlock) were incubated with the fixed cells overnight at 4° C. The cells were washed with 40 μL PBS twice before the addition of secondary antibodies (Anti-mouse labeled with AlexaFluor555 and anti-rabbit labeled with AlexaFluor488 in 1:2000 dilution in SuperBlock). The secondary antibodies were incubated at ambient temperature for 2 hours and were protected from light. The cells were washed with 40 μL PBS before the addition of 20 μL Hoechst 33342 (1:5000 in PBS). The plate was sealed and stored at 4° C. in the dark until imaging analyses on Opera High Content Screening System (Evotec). Three data points were reported: pJNK (mean intensity inside the search stencil), DLK (mean intensity of the 1% brightest pixels inside the search stencil) and nuclear area."}, "[2]": {"target": "DLK kinase (N-terminally GST-tagged DLK, catalytic domain amino acid 1-520) (Homo sapiens (Human), UniProt Q12852)", "sequence (Q12852 1-520)": "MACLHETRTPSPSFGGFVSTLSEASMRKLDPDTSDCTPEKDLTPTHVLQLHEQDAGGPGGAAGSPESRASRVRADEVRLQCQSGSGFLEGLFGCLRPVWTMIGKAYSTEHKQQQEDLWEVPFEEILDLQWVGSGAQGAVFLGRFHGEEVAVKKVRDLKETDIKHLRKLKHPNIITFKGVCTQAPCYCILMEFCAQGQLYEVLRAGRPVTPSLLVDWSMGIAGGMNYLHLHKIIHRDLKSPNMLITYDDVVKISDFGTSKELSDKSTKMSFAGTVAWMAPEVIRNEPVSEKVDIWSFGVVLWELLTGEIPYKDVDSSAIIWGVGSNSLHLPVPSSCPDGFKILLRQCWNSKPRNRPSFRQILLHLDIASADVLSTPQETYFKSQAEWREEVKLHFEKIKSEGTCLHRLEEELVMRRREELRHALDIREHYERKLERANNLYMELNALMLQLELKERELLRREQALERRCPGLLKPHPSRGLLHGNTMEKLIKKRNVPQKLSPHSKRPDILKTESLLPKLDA", "assay": "DLK TR-FRET assay", "type": "biochemical", "details": "30 μM ATP, MKK4 K131M substrate, read-out: DLK HTRF (Ki)", "summary_of_the_method": "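5 nM GST-tagged DLK catalytic domain (aa 1-520) with 40 nM HIS-MKK4 K131M substrate and 30 μM ATP in HEPES pH 7.5/MgCl2 buffer. Compounds tested in 1:3 serial dilution from 20 uM, 60 min at ambient temperature. EDTA quench, then 3 h with Eu-anti-phospho-MKK4 and D2-anti-HIS before TR-FRET read (665/615 nm).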"}}, "data": [{"smiles": "CC(=O)N1CCC(C#N)(c2cc(Nc3cc(C(F)(F)F)ccn3)nc(N3CCC(F)(F)C3)n2)CC1", "note": "[1-Acetyl-4-[2-(3,3-difluoro-pyrrolidin-1-yl)-6-(4-trifluoromethyl-pyridin-2-ylamino)-pyrimidin-4-yl]-piperidine-4-carbonitrile]", "values": [{"measurement": "IC50", "setting": "[1]", "result": 605, "unit": "nM"}]}, {"smiles": "N#CC1(C(=O)N2CCC(c3cc(Nc4cc(C(F)(F)F)ccn4)nc(N4CCC(F)(F)C4)n3)C2)CC1", "note": "(stereo not shown) [1-{3-[2-(3,3-Difluoro-pyrrolidin-1-yl)-6-(4-trifluoromethyl-pyridin-2-ylamino)-pyrimidin-4-yl]-pyrrolidine-1-carbonyl}-cyclopropanecarbonitrile]", "values": [{"measurement": "IC50", "setting": "[1]", "result": 584, "unit": "nM"}]}, {"smiles": "CN(CCO)c1nc(Nc2cc(C(F)(F)F)ccn2)cc(C2CCNC2)n1", "note": "(stereo not shown) [2-{Methyl-[4-pyrrolidin-3-yl-6-(4-trifluoromethyl-pyridin-2-ylamino)-pyrimidin-2-yl]-amino}-ethanol]", "values": [{"measurement": "IC50", "setting": "[1]", "result": 193, "unit": "nM"}]}, {"smiles": "FC(F)(F)c1ccnc(Nc2cc(C3CCCNC3)nc(-c3ccccc3)n2)c1", "note": "(stereo not shown) [(2-Phenyl-6-piperidin-3-yl-pyrimidin-4-yl)-(4-trifluoromethyl-pyridin-2-yl)-amine]", "values": [{"measurement": "IC50", "setting": "[1]", "result": 1000, "unit": "nM"}]}, {"smiles": "FC1(F)CCN(c2nc(Nc3cc(Cl)ccn3)cc(C3CCNCC3)n2)C1", "note": "[(4-Chloro-pyridin-2-yl)-[2-(3,3-difluoro-pyrrolidin-1-yl)-6-piperidin-4-yl-pyrimidin-4-yl]-amine]", "values": [{"measurement": "IC50", "setting": "[1]", "result": 113, "unit": "nM"}]}, {"smiles": "FC1(F)CCN(c2nc(Nc3cc(C4CCC4)ccn3)cc(C3CCNCC3)n2)C1", "note": "[(4-Cyclobutyl-pyridin-2-yl)-[2-(3,3-difluoro-pyrrolidin-1-yl)-6-piperidin-4-yl-pyrimidin-4-yl]-amine]", "values": [{"measurement": "IC50", "setting": "[1]", "result": 200, "unit": "nM"}]}, {"smiles": "CC1CCCN1c1nc(Nc2cc(C(F)(F)F)ccn2)cc(C2CCN(C(=O)Cn3ccnc3)C2)n1", "note": "(stereo not shown) [Example 402, 2-Imidazol-1-yl-1-{3-[2-(2-methyl-pyrrolidin-1-yl)-6-(4-trifluoromethyl-pyridin-2-ylamino)-pyrimidin-4-yl]-pyrrolidin-1-yl}-ethanone]", "values": [{"measurement": "Ki", "setting": "[2]", "result": 1.59, "unit": "nM"}]}, {"smiles": "FC1(F)CCN(c2nc(Nc3cc(C(F)(F)F)ccn3)cc(C3CCN(Cc4cn[nH]c4)C3)n2)C1", "note": "(stereo not shown) [Example 404, {2-(3,3-Difluoro-pyrrolidin-1-yl)-6-[1-(1H-pyrazol-4-ylmethyl)-pyrrolidin-3-yl]-pyrimidin-4-yl}-(4-trifluoromethyl-pyridin-2-yl)-amine]", "values": [{"measurement": "Ki", "setting": "[2]", "result": 4.92, "unit": "nM"}]}, {"smiles": "FC(F)(F)c1ccnc(Nc2cc(C3CCCN(C4COC4)C3)nc(C3CCC3)n2)c1", "note": "(stereo not shown) [Example 407, [2-Cyclobutyl-6-(1-oxetan-3-yl-piperidin-3-yl)-pyrimidin-4-yl]-(4-trifluoro-methyl-pyridin-2-yl)-amine]", "values": [{"measurement": "Ki", "setting": "[2]", "result": 26, "unit": "nM"}]}, {"smiles": "CC(C)c1nc(Nc2cc(C(F)(F)F)ccn2)cc(C2CCNC(=O)C2)n1", "note": "(stereo not shown) [Example 408, 4-[2-Isopropyl-6-(4-trifluoro-methyl-pyridin-2-ylamino)-pyrimidin-4-yl]-piperidin-2-one]", "values": [{"measurement": "Ki", "setting": "[2]", "result": 97.8, "unit": "nM"}]}, {"smiles": "CC1CCCN1c1nc(Nc2cc(C(F)(F)F)ccn2)cc(C2CCNC(=O)C2)n1", "note": "(stereo not shown) [Example 412, 4-[2-(2-Methyl-pyrrolidin-1-yl)-6-(4-trifluoromethyl-pyridin-2-ylamino)-pyrimidin-4-yl]-piperidin-2-one]", "values": [{"measurement": "Ki", "setting": "[2]", "result": 47.5, "unit": "nM"}]}, {"smiles": "Cn1cc(-c2nc(Nc3cc(C(F)(F)F)ccn3)cc(C3CCN(CC4CCOCC4)C3)n2)cn1", "note": "(stereo not shown) [Example 423, {2-(1-Methyl-1H-pyrazol-4-yl)-6-[1-(tetrahydro-pyran-4-ylmethyl)-pyrrolidin-3-yl]-pyrimidin-4-yl}-(4-trifluoromethyl-pyridin-2-yl)-amine]", "values": [{"measurement": "Ki", "setting": "[2]", "result": 5.21, "unit": "nM"}]}, {"smiles": "CC(=O)N1CCC(c2cc(Nc3cc(C(F)(F)F)ccn3)nc(-c3cnn(C)c3)n2)CC1", "note": "[Example 424, 1-{4-[2-(1-Methyl-1H-pyrazol-4-yl)-6-(4-trifluoromethyl-pyridin-2-ylamino)-pyrimidin-4-yl]-piperidin-1-yl}-ethanone]", "values": [{"measurement": "Ki", "setting": "[2]", "result": 12.4, "unit": "nM"}]}, {"smiles": "COc1cc(C)ccc1C(=O)N1CCCC(c2cc(Nc3cc(C)ccn3)nc(N3CCCC3C)n2)C1", "note": "(stereo not shown) [Example 425, (2-Methoxy-4-methyl-phenyl)-{3-[6-(4-methyl-pyridin-2-ylamino)-2-(2-methyl-pyrrolidin-1-yl)-pyrimidin-4-yl]-piperidin-1-yl}-methanone]", "values": [{"measurement": "Ki", "setting": "[2]", "result": 0.17, "unit": "nM"}]}, {"smiles": "COc1cc(C)ccc1C(=O)N1CCCC(c2cc(Nc3cc(C)ccn3)nc(N3CCC(F)(F)C3)n2)C1", "note": "(stereo not shown) [Example 426, {3-[2-(3,3-Difluoro-pyrrolidin-1-yl)-6-(4-methyl-pyridin-2-ylamino)-pyrimidin-4-yl]-piperidin-1-yl}-(2-methoxy-4-methyl-phenyl)-methanone]", "values": [{"measurement": "Ki", "setting": "[2]", "result": 0.5, "unit": "nM"}]}, {"smiles": "FC1(F)CCN(c2nc(Nc3cc(Cl)ccn3)cc(C3CCN(C4COC4)CC3)n2)C1", "note": "[Example 427, N-(4-chloropyridin-2-yl)-2-(3,3-difluoropyrrolidin-1-yl)-6-(1-(oxetan-3-yl)piperidin-4-yl)pyrimidin-4-amine]", "values": [{"measurement": "Ki", "setting": "[2]", "result": 16, "unit": "nM"}]}, {"smiles": "FC(F)(F)c1ccnc(Nc2cc(C3CCOCC3)nc(N3CC4CC3CO4)n2)c1", "note": "(stereo not shown) [[2-(2-Oxa-5-aza-bicyclo[2.2.1]hept-5-yl)-6-(tetrahydro-pyran-4-yl)-pyrimidin-4-yl]-(4-trifluoromethyl-pyridin-2-yl)-amine]", "values": [{"measurement": "IC50", "setting": "[1]", "result": 268, "unit": "nM"}]}, {"smiles": "FC(F)(F)c1ccnc(Nc2cc(C3CCNCC3)nc(N3CC4CC3CO4)n2)c1", "note": "(stereo not shown) [[2-(2-Oxa-5-aza-bicyclo[2.2.1]hept-5-yl)-6-piperidin-4-yl-pyrimidin-4-yl]-(4-trifluoromethyl-pyridin-2-yl)-amine]", "values": [{"measurement": "IC50", "setting": "[1]", "result": 389, "unit": "nM"}]}, {"smiles": "FC(F)(F)c1ccnc(Nc2cc(C3CCOCC3)nc(N3CCc4nc[nH]c4C3)n2)c1", "note": "[[2-(3,4,6,7-Tetrahydro-imidazo[4,5-c]pyridin-5-yl)-6-(tetrahydro-pyran-4-yl)-pyrimidin-4-yl]-(4-trifluoromethyl-pyridin-2-yl)-amine]", "values": [{"measurement": "IC50", "setting": "[1]", "result": 240, "unit": "nM"}]}, {"smiles": "Cc1nccc(C2CCN(c3nc(Nc4cc(C(F)(F)F)ccn4)cc(C4CCOCC4)n3)C2)n1", "note": "(stereo not shown) [[2-[3-(2-Methyl-pyrimidin-4-yl)-pyrrolidin-1-yl]-6-(tetrahydro-pyran-4-yl)-pyrimidin-4-yl]-(4-trifluoromethyl-pyridin-2-yl)-amine]", "values": [{"measurement": "IC50", "setting": "[1]", "result": 227, "unit": "nM"}]}, {"smiles": "Cc1c[nH]c(CN2CCC(c3cc(Nc4cc(C(F)(F)F)ccn4)nc(N4CC(F)(F)C4)n3)C2)n1", "note": "(stereo not shown) [{2-(3,3-Difluoro-azetidin-1-yl)-6-[1-(4-methyl-1H-imidazol-2-ylmethyl)-pyrrolidin-3-yl]-pyrimidin-4-yl}-(4-trifluoromethyl-pyridin-2-yl)-amine]", "values": [{"measurement": "IC50", "setting": "[1]", "result": 418, "unit": "nM"}]}, {"smiles": "Cc1ccnc(Nc2cc(C3CCCN(C(=O)c4ccccc4)C3)nc(N3CCCC3)n2)c1", "note": "(stereo not shown) [{3-[6-(4-Methyl-pyridin-2-ylamino)-2-pyrrolidin-1-yl-pyrimidin-4-yl]-piperidin-1-yl}-phenyl-methanone]", "values": [{"measurement": "IC50", "setting": "[1]", "result": 77.9, "unit": "nM"}]}]}
